The test system of one series is back skin of mice. In words: Example 5: skin irritation score on back skin. Type of series: in vivo, mice (FVB strain). The following applies: 0.1% in 25% DMSO + 75% ethanol, 5 μl on back skin, score 0 (no erythema) to 4. The method, then: The hair of the back skin of mice (FVB strain, female, 7 weeks of age, n=3/group) was clipped by an electric clipper on day 0. 5 μl of test sample solution (˜1 cm diameter) was applied on the back skin. After 24 hours (day 1), skin irritation was measured on the basis of a scoring system (0: no erythema; 1: very slight erythema; 2: well-defined erythema; 3: moderate erythema; 4: several erythema and edema) and a second dose administered. After a second 24 hours (day 2), skin irritation was measured and a third dose administered. After a third 24 hours (day 3), skin irritation was again measured.

The test system of series [1] is caspase-9 (−/−) null fibroblasts. The following applies: cited from earlier work.

The structures appear in SMILES notation.

Consider `O=C1C(=Cc2ccc(-c3ccccc3[N+](=O)[O-])o2)C(=O)N(c2ccccc2)C(=S)N1c1ccccc1` [Ucf-101], for which the skin irritation score in the series with back skin of mice (day 0), with back skin of mice (day 1), with back skin of mice (day 2) and in the series with back skin of mice (day 3) was 0 in each case. Besides, the “block of Omi/HtrA2 induced cell death” value in series [1] is “block Omi/HtrA2 induced cell death”.

The values are drawn from US20050250799A1, “Protease inhibitors for treatment of wrinkles” (priority 2004, published 2005).
